Assay results published in US8673894B2 (Hoffmann-La Roche Inc., priority 2010, dated 2014).
Structures can show the parent of a compound that is named as a salt.

Tests used:
[1] = tested on: Aβ40; experiment: Cellular Aβ-lowering assay; format: cell-based; conditions: HEK293 cells stably expressing human APP695, Aβ40 in supernatant by ELISA after 18-20 hrs; read-out: Cellular assay Abeta40 IC50
Protocol: Cellular Aβ-Lowering Assay:
Human HEK293 cells which are stably transfected with a vector expressing a cDNA of the human APP wt gene (APP695) were used to assess the potency of the compounds in a cellular assay. The cells were seeded in 96-well microtiter plates in cell culture medium (Iscove, plus 10% (v/v) fetal bovine serum, glutamine, penicillin/streptomycin) to about 80% confluence and the compounds were added at a 10× concentration in 1/10 volume of medium without FCS containing 8% DMSO (final concentration of DMSO was kept at 0.8% v/v). After 18-20 hrs incubation at 37° C. and 5% CO2 in a humidified incubator the culture supernatant was harvested for the determination of Aβ40 concentrations. 96well ELISA plates (e.g., Nunc MaxiSorb) were coated with monoclonal antibody which specifically recognize the C-terminal end of Aβ40 (Brockhaus et al., NeuroReport 9, 1481-1486; 1998). After blocking of non-specific binding sites with e.g. 1% BSA and washing, the culture supernatants were added in suitable dilutions together with a horseradish peroxidase-coupled Aβ detection antibody (e.g., antibody 4G8, Senetek, Maryland Heights, Mo.) and incubated for 5 to 7 hrs. Subsequently the wells of the microtiter plate were washed extensively with Tris-buffered saline containing 0.05% Tween 20 and the assay was developed with tetramethylbenzidine/H2O2 in citric acid buffer. After stopping the reaction with one volume 1 N H2SO4 the reaction was measured in an ELISA reader at 450 nm wavelength. The concentrations of Aβ in the culture supernatants were calculated from a standard curve obtained with known amounts of pure Aβ peptide.

[2] = target: T1, endogenous cellular BACE2 (Rattus norvegicus, UniProt Q6IE75); experiment: Assay for BACE inhibition by measuring cellular TMEM27 cleavage; format: cell-based; conditions: INS-TMEM27 (INS1e-derived) cells, shed human TMEM27 in supernatant by ELISA
T1 construct: endogenous cellular BACE2 in the Ins1e rat cell line; endogenous in cells; host or cells: INS-TMEM27 (INS1e-derived rat insulinoma cell line with doxycycline-inducible full-length human TMEM27)
T1 sequence (Q6IE75 63-514): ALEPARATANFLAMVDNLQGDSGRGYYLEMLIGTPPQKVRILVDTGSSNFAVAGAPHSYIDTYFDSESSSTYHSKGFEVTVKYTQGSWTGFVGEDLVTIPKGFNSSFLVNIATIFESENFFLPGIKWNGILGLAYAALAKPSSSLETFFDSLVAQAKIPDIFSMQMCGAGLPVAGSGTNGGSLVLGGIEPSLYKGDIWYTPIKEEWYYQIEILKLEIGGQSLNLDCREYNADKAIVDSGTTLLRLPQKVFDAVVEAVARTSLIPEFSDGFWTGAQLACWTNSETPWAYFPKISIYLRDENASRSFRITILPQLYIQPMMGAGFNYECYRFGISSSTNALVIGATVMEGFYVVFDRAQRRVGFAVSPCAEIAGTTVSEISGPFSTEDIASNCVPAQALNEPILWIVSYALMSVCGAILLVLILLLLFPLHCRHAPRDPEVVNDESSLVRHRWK
Source text: Assay for BACE Inhibition by Measuring Cellular TMEM27 Cleavage:
The assay uses the principle of inhibition of human TMEM27 cleavage by endogenous cellular BACE2 in the Ins1e rat cell line and shedding from the cell surface into the culture medium, followed by detection in an ELISA assay. Inhibition of BACE2 prevents the cleavage and shedding in a dose-dependent manner.
The stable cell line “INS-TMEM27” represents an INS1e-derived cell line with inducible expression (using the TetOn system) of full-length hTMEM27 in a doxycycline-dependent manner. The cells are cultured throughout the experiment in RPMI1640+ Glutamax (Invitrogen) Penicillin/Streptomycin, 10% Fetal bovine serum, […], […], 100 micrograms/ml G418 and 100 microgram/ml hygromycin and are grown inadherent culture at 37° C. in a standard CO2 cell culture incubator.
INS-TMEM27 cells are seeded in 96-well plates. After 2 days in culture, BACE2 inhibitor is added in a range of concentrations as required by the assay and after a further two hours, doxycycline is added to a final concentration of 500 ng/ml. The cells are incubated for a further 46 hours and the supernatant harvested for detection of shed TMEM27.
An ELISA assay (using a pair of mouse anti-human-TMEM27 antibodies, raised against the extracellular domain of TMEM27) is used for detection of TMEM27 in the culture medium. An EC50 for BACE2 inhibition is calculated using the ELISA readout for each inhibitor concentration with standard curve-fitting software such as XLFit for the Excel spreadsheet program.

IC50 [1] | IC50 [2] | Structure (SMILES)
0.0029 µM | 0.307 µM | C[C@]1(c2cc(NC(=O)c3cnc(OCF)cn3)ccc2F)N=C(N)COCC1(F)F [Example 103, (R)-N-(3-(3-Amino-6,6-difluoro-5-methyl-2,5,6,7-tetrahydro-1,4-oxazepin-5-yl)-4-fluorophenyl)-5-(fluoromethoxy)pyrazine-2-carboxamide formate]
0.016 µM | 0.00145 µM | C[C@@]1(c2cc(NC(=O)c3ccccn3)ccc2F)CCOCC(N)=N1 [Example 7, Pyridine-2-carboxylic acid [3-((S)-3-amino-5-methyl-2,5,6,7-tetrahydro-[1,4]oxazepin-5-yl)-4-fluoro-phenyl]-amide]
0.0015 µM | 0.0156 µM | C[C@]1(c2cc(NC(=O)c3ncc(C#N)cc3Cl)ccc2F)N=C(N)COCC1(F)F [Example 56, (R)-N-(3-(3-amino-6,6-difluoro-5-methyl-2,5,6,7-tetrahydro-1,4-oxazepin-5-yl)-4-fluorophenyl)-3-chloro-5-cyanopicolinamide formate]
0.057 µM | 0.295 µM | C[C@]1(c2cc(NC(=O)c3n[nH]cc3Cl)ccc2F)N=C(N)COCC1(F)F [Example 96, (R)-N-(3-(3-amino-6,6-difluoro-5-methyl-2,5,6,7-tetrahydro-1,4-oxazepin-5-yl)-4-fluorophenyl)-4-chloro-1H-pyrazole-3-carboxamide]
0.023 µM | 0.0047 µM | Cn1ccc(C(=O)Nc2ccc(F)c([C@@]3(C)N=C(N)COCC3(F)F)c2)n1 [Example 43, (R)-N-(3-(3-amino-6,6-difluoro-5-methyl-2,5,6,7-tetrahydro-1,4-oxazepin-5-yl)-4-fluorophenyl)-1-methyl-1H-pyrazole-3-carboxamide formate]
1.64 µM | 0.14 µM | C[C@@]1(c2cc(NC(=O)C3CC3(F)F)ccc2F)CCOCC(N)=N1 (stereo partly drawn) [Example 23, 2,2-Difluoro-cyclopropanecarboxylic acid [3-((S)-3-amino-5-methyl-2,5,6,7-tetrahydro-[1,4]oxazepin-5-yl)-4-fluoro-phenyl]-amide]
0.0008 µM | 0.00903 µM | CC[C@]1(c2cc(NC3CCCC3)ccc2F)N=C(N)COCC1(F)F [Example 119, (R)-5-(5-(Cyclopentylamino)-2-fluorophenyl)-5-ethyl-6,6-difluoro-2,5,6,7-tetrahydro-1,4-oxazepin-3-amine]
0.288 µM | 67.4 µM | CC(C)Oc1ccc(C(=O)Nc2ccc(F)c([C@@]3(C)N=C(N)COCC3(F)F)c2)nc1 [Example 67, (R)-N-(3-(3-Amino-6,6-difluoro-5-methyl-2,5,6,7-tetrahydro-1,4-oxazepin-5-yl)-4-fluorophenyl)-5-isopropoxypicolinamide formate]
0.022 µM | 1.11 µM | C[C@]1(c2cc(NC(=O)c3ccc(OCC(F)(F)F)cn3)ccc2F)N=C(N)COCC1(F)F [Example 49, (R)-N-(3-(3-amino-6,6-difluoro-5-methyl-2,5,6,7-tetrahydro-1,4-oxazepin-5-yl)-4-fluorophenyl)-5-(2,2,2-trifluoroethoxy)picolinamide formate]
0.13 µM | 0.118 µM | CCc1ocnc1C(=O)Nc1ccc(F)c([C@@]2(C)N=C(N)COCC2(F)F)c1 [Example 99, (R)-N-(3-(3-Amino-6,6-difluoro-5-methyl-2,5,6,7-tetrahydro-1,4-oxazepin-5-yl)-4-fluorophenyl)-5-ethyloxazole-4-carboxamide]
0.054 µM | 0.025 µM | C[C@]1(c2cc(NC(=O)c3ncccc3C(F)(F)F)ccc2F)N=C(N)COCC1(F)F [Example 37, (R)-N-(3-(3-amino-6,6-difluoro-5-methyl-2,5,6,7-tetrahydro-1,4-oxazepin-5-yl)-4-fluorophenyl)-3-(trifluoromethyl)picolinamide formate]
1.23 µM | 0.453 µM | CCn1cc(Cl)c(C(=O)Nc2ccc(F)c([C@@]3(CC)N=C(N)COCC3(F)F)c2)n1 [Example 91, (R)-N-(3-(3-Amino-5-ethyl-6,6-difluoro-2,5,6,7-tetrahydro-1,4-oxazepin-5-yl)-4-fluorophenyl)-4-chloro-1-ethyl-1H-pyrazole-3-carboxamide]
0.34 µM | 14.8 µM | CC1(C)OCC(N)=N[C@](C)(c2cc(NC(=O)c3ccc(Cl)cn3)c(F)cc2F)C1(F)F [Example 118, (R)-N-(5-(3-amino-6,6-difluoro-5,7,7-trimethyl-2,5,6,7-tetrahydro-1,4-oxazepin-5-yl)-2,4difluorophenyl)-5-chloropicolinamide]
0.0008 µM | 0.00903 µM | CC1(C)OCC(N)=N[C@](C)(c2cc(NC(=O)c3ccc(Cl)cn3)ccc2F)C1(F)F [Example 110, (R)-N-(3-(3-amino-6,6-difluoro-5,7,7-trimethyl-2,5,6,7-tetrahydro-1,4-oxazepin-5-yl)-4-fluorophenyl)-5-chloropicolinamide]
0.014 µM | 0.0135 µM | C[C@@]1(c2cc(NC(=O)c3ncc(C(F)(F)F)cc3Cl)ccc2F)CCOCC(N)=N1 [Example 16, 3-Chloro-5-trifluoromethyl-pyridine-2-carboxylic acid [3-((S)-3-amino-5-methyl-2,5,6,7-tetrahydro-[1,4]oxazepin-5-yl)-4-fluoro-phenyl]-amide]
0.0153 µM | 0.0544 µM | C[C@]1(c2cc(NC(=O)c3csc(Cl)n3)ccc2F)N=C(N)COCC1(F)F [Example 66, (R)-N-(3-(3-Amino-6,6-difluoro-5-methyl-2,5,6,7-tetrahydro-1,4-oxazepin-5-yl)-4-fluorophenyl)-2-chlorothiazole-4-carboxamide formate]
0.014 µM | 0.029 µM | C[C@]1(c2cc(NC(=O)c3ccccn3)ccc2F)N=C(N)COCC1(F)F [Example 35, (R)-N-(3-(3-amino-6,6-difluoro-5-methyl-2,5,6,7-tetrahydro-1,4-oxazepin-5-yl)-4-fluorophenyl)picolinamide formate]
0.055 µM | 0.17 µM | C[C@]1(c2cc(NC(=O)c3cnc(Cl)cn3)ccc2F)N=C(N)COCC1(F)F [Example 38, (R)-N-(3-(3-amino-6,6-difluoro-5-methyl-2,5,6,7-tetrahydro-1,4-oxazepin-5-yl)-4-fluorophenyl)-5-chloropyrazine-2-carboxamide formate]
0.013 µM | 0.378 µM | C[C@]1(c2cc(NC(=O)c3cnc(C(F)F)cn3)ccc2F)N=C(N)COCC1(F)F [Example 105, (R)-N-(3-(3-Amino-6,6-difluoro-5-methyl-2,5,6,7-tetrahydro-1,4-oxazepin-5-yl)-4-fluorophenyl)-5-(difluoromethyl)pyrazine-2-carboxamide formate]
0.22 µM | 0.038 µM | CC1(C)C[C@@](C)(c2cc(NC(=O)C3(C(F)(F)F)CC3)ccc2F)N=C(N)CO1 [Example 20, 1-Trifluoromethyl-cyclopropanecarboxylic acid [3-((S)-3-amino-5,7,7-trimethyl-2,5,6,7-tetrahydro-[1,4]oxazepin-5-yl)-4-fluoro-phenyl]-amide]
